Several values for one entry are separate records, joined by “and”; a condition that tells them apart may be missing. Equal values may be shown once. Toxic doses and inconclusive results are not listed.

In PubChem BioAssay AID248 (DTP/NCI, 2004) one finds T/C data, which are given here for 15 compounds.

This assay relates to L1210 leukemia ip in BDF1 mice, survival T/C. As to the kind of experiment: NCI In Vivo Anticancer Drug Screen. Data for tumor model L1210 Leukemia (intraperitoneal) in B6D2F1 (BDF1) mice. Particulars: endpoint: mean survival time, higher = longer survival. The procedure, abridged:
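Transplantable tumor model; survival measured in treated vs vehicle control mice. Value = treated/control.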

Setting [1] is: dose: 100.0 mg/kg/injection, schedule: Q01DX009 (ip), vehicle: Klucel (hydroxypropylcellulose) (HPC).
The mark [2] stands for this setting: dose: 100.0 mg/kg/injection, schedule: Q04DX003 (ip), vehicle: Klucel (hydroxypropylcellulose) (HPC).
The mark [3] stands for this setting: dose: 100.0 mg/kg/injection, schedule: Q04DX003 (ip), vehicle: saline with Tween-80.
Where [4] appears, read: dose: 200.0 mg/kg/injection, schedule: Q01DX009 (ip), vehicle: Klucel (hydroxypropylcellulose) (HPC).
Where [5] appears, read: dose: 200.0 mg/kg/injection, schedule: Q04DX003 (ip), vehicle: Klucel (hydroxypropylcellulose) (HPC).
The mark [6] stands for this setting: dose: 200.0 mg/kg/injection, schedule: Q04DX003 (ip), vehicle: saline with Tween-80.
[7] abbreviates: dose: 400.0 mg/kg/injection, schedule: Q01DX009 (ip), vehicle: Klucel (hydroxypropylcellulose) (HPC).
Where [8] appears, read: dose: 400.0 mg/kg/injection, schedule: Q04DX003 (ip), vehicle: Klucel (hydroxypropylcellulose) (HPC).
[9] abbreviates: dose: 400.0 mg/kg/injection, schedule: Q04DX003 (ip), vehicle: saline with Tween-80.
[10] abbreviates: dose: 100.0 mg/kg/injection, schedule: Q04DX002 (ip), vehicle: Klucel (hydroxypropylcellulose) (HPC).
The mark [11] stands for this setting: dose: 200.0 mg/kg/injection, schedule: Q04DX002 (ip), vehicle: Klucel (hydroxypropylcellulose) (HPC).
The mark [12] stands for this setting: dose: 400.0 mg/kg/injection, schedule: Q04DX002 (ip), vehicle: Klucel (hydroxypropylcellulose) (HPC).
Setting [13] is: dose: 100.0 mg/kg/injection, schedule: Q01DX001 (ip), vehicle: carboxymethylcellulose (CMC).
The mark [14] stands for this setting: dose: 200.0 mg/kg/injection, schedule: Q01DX001 (ip), vehicle: carboxymethylcellulose (CMC).
The mark [15] stands for this setting: dose: 400.0 mg/kg/injection, schedule: Q01DX001 (ip), vehicle: carboxymethylcellulose (CMC).

Regarding `S=C(S)Nc1cccc2ccccc12`, the T/C runs as follows: (dose: 12.5 mg/kg/injection, schedule: Q01DX009 (ip), vehicle: Klucel (hydroxypropylcellulose) (HPC)) 103 % of control; (dose: 12.5 mg/kg/injection, schedule: Q04DX003 (ip), vehicle: Klucel (hydroxypropylcellulose) (HPC)) 100 % of control; (dose: 25.0 mg/kg/injection, schedule: Q01DX009 (ip), vehicle: Klucel (hydroxypropylcellulose) (HPC)) 98 % of control; (dose: 25.0 mg/kg/injection, schedule: Q04DX003 (ip), vehicle: Klucel (hydroxypropylcellulose) (HPC)) 94 % of control; (dose: 50.0 mg/kg/injection, schedule: Q01DX009 (ip), vehicle: Klucel (hydroxypropylcellulose) (HPC)) 92 % of control; (dose: 50.0 mg/kg/injection, schedule: Q04DX003 (ip), vehicle: Klucel (hydroxypropylcellulose) (HPC)) 100 % of control. In addition, the T/C is, setting by setting: under setting [1], 94 % of control; (dose: 100.0 mg/kg/injection, schedule: Q01DX009 (ip), vehicle: saline with Tween-80) 89 % of control; under setting [2], 98 % of control; under setting [3], 93 % of control and 86 % of control; under setting [4], 94 % of control; (dose: 200.0 mg/kg/injection, schedule: Q01DX009 (ip), vehicle: saline with Tween-80) 88 % of control. Also, the T/C is 96 % of control under setting [5]; 95 % of control and 86 % of control under setting [6]; 99 % of control under setting [7]; 104 % of control (dose: 400.0 mg/kg/injection, schedule: Q01DX009 (ip), vehicle: saline with Tween-80); 91 % of control under setting [8]; 101 % of control and 86 % of control under setting [9].

Regarding `CCCCCCC(=O)C(O)C(O)C(=O)CCCCCCCC(=O)O` (centres undefined), the T/C by setting is: (dose: 100.0 mg/kg/injection, schedule: Q04DX002 (ip), vehicle: other) 91 % of control; (dose: 200.0 mg/kg/injection, schedule: Q04DX002 (ip), vehicle: other) 98 % of control; (dose: 400.0 mg/kg/injection, schedule: Q04DX002 (ip), vehicle: other) 102 % of control.

As for `CCOC(=O)c1cnc(SC)nc1Nc1cccc(Cl)c1`, the T/C runs as follows: under setting [1], 97 % of control; under setting [2], 90 % of control; under setting [5], 92 % of control; under setting [7], 90 % of control; under setting [8], 88 % of control.

With `COc1ccc(C(=O)c2ccn[nH]2)cc1`, the T/C is, setting by setting: (dose: 75.0 mg/kg/injection, schedule: Q04DX003 (ip), vehicle: Klucel (hydroxypropylcellulose) (HPC)) 97 % of control; (dose: 150.0 mg/kg/injection, schedule: Q04DX003 (ip), vehicle: Klucel (hydroxypropylcellulose) (HPC)) 100 % of control; (dose: 300.0 mg/kg/injection, schedule: Q04DX003 (ip), vehicle: Klucel (hydroxypropylcellulose) (HPC)) 99 % of control.

As to `CCOC(=O)CNc1ccc(F)cc1Cl`, the T/C under setting [10] is 105 % of control, the T/C under setting [11] was 101 % of control and the T/C under setting [12] is 105 % of control.

Consider `CN(C)Cc1ccc2ccccc2c1C(O)(c1ccccc1)c1ccccc1`, for which the T/C runs as follows: under setting [13], 96 % of control; under setting [14], 98 % of control; under setting [15], 96 % of control.

In the case of `Cc1ccc(Cl)cc1NC(=O)c1ccccc1C(=O)O`, the T/C under setting [1] is 102 % of control; the T/C under setting [2] was 102 % of control; the T/C under setting [4] is 97 % of control; the T/C under setting [5] is 101 % of control; the T/C under setting [7] is 96 % of control; the T/C under setting [8] was 102 % of control.

Take `COc1cccc(C2NC(=S)N3C(c4cccc(OC)c4)NC(=S)N23)c1` (centres undefined): the T/C was 108 % of control (dose: 100.0 mg/kg/injection, schedule: Q01DX009 (ip), vehicle: gum acacia); 88 % of control (dose: 100.0 mg/kg/injection, schedule: Q04DX003 (ip), vehicle: gum acacia); 99 % of control (dose: 200.0 mg/kg/injection, schedule: Q01DX009 (ip), vehicle: gum acacia); 100 % of control (dose: 200.0 mg/kg/injection, schedule: Q04DX003 (ip), vehicle: gum acacia); 93 % of control (dose: 400.0 mg/kg/injection, schedule: Q01DX009 (ip), vehicle: gum acacia); 95 % of control (dose: 400.0 mg/kg/injection, schedule: Q04DX003 (ip), vehicle: gum acacia).

For `Cc1ccc(NC(=O)CBr)cc1`, the T/C (dose: 50.0 mg/kg/injection, schedule: Q01DX001 (ip), vehicle: other) is 96 % of control.

In the case of `O=S(c1ccccc1)c1ccccc1`, the T/C runs as follows: (dose: 75.0 mg/kg/injection, schedule: Q01DX009 (ip), vehicle: Klucel (hydroxypropylcellulose) (HPC)) 98 % of control; under setting [10], 102 % of control; (dose: 150.0 mg/kg/injection, schedule: Q01DX009 (ip), vehicle: Klucel (hydroxypropylcellulose) (HPC)) 102 % of control; under setting [11], 98 % of control; (dose: 300.0 mg/kg/injection, schedule: Q01DX009 (ip), vehicle: Klucel (hydroxypropylcellulose) (HPC)) 95 % of control; under setting [12], 112 % of control.

As to `CCOC(=O)CCCN(c1ccc(OC)c(OC)c1)S(=O)(=O)c1ccc(C)cc1`, the T/C runs as follows: under setting [13], 97 % of control; under setting [14], 105 % of control; under setting [15], 94 % of control.

As for `COc1cc(NS(C)(=O)=O)ccc1Nc1c2ccc([N+](=O)[O-])cc2nc2c(C)c(C)ccc12`, the T/C is 113 % of control (dose: 0.48 mg/kg/injection, schedule: Q01DX009 (ip), vehicle: saline); 151 % of control (dose: 2.7 mg/kg/injection, schedule: Q01DX009 (ip), vehicle: saline); 169 % of control (dose: 4.1 mg/kg/injection, schedule: Q01DX009 (ip), vehicle: saline); 106 % of control (dose: 6.25 mg/kg/injection, schedule: Q01DX009 (ip), vehicle: water); 157 % of control (dose: 12.5 mg/kg/injection, schedule: Q01DX009 (ip), vehicle: saline); 116 % of control (dose: 12.5 mg/kg/injection, schedule: Q01DX009 (ip), vehicle: water). For the same compound, the T/C is 114 % of control (dose: 22.0 mg/kg/injection, schedule: Q04DX003 (ip), vehicle: saline); 122 % of control (dose: 25.0 mg/kg/injection, schedule: Q01DX001 (ip), vehicle: water); 102 % of control (dose: 25.0 mg/kg/injection, schedule: Q01DX009 (ip), vehicle: saline); 124 % of control (dose: 25.0 mg/kg/injection, schedule: Q01DX009 (ip), vehicle: water); 106 % of control (dose: 25.0 mg/kg/injection, schedule: Q01DX009 (sc), vehicle: saline); 120 % of control (dose: 35.0 mg/kg/injection, schedule: Q04DX003 (ip), vehicle: saline). The T/C is, setting by setting: (dose: 50.0 mg/kg/injection, schedule: Q01DX009 (sc), vehicle: saline) 123 % of control; (dose: 100.0 mg/kg/injection, schedule: Q01DX009 (sc), vehicle: saline) 115 % of control; (dose: 200.0 mg/kg/injection, schedule: Q01DX009 (sc), vehicle: saline) 124 % of control; (dose: 400.0 mg/kg/injection, schedule: Q01DX009 (ip), vehicle: water) 150 % of control.

For `c1ccc2c(c1)NC1CCN2C1` (centres undefined), the T/C under setting [3] is 109 % of control, the T/C under setting [6] was 103 % of control and the T/C under setting [9] is 97 % of control.

`CCCCNC(=O)c1c(Cl)c(Cl)c(Cl)c(Cl)c1C(=O)O`: the T/C is, setting by setting: (dose: 100.0 mg/kg/injection, schedule: Q04DX002 (ip), vehicle: saline with Tween-80) 97 % of control; (dose: 200.0 mg/kg/injection, schedule: Q04DX002 (ip), vehicle: saline with Tween-80) 90 % of control.

`NC1=NC2OC(CO)C(O)C2O1` (centres undefined): the T/C (dose: 100.0 mg/kg/injection, schedule: Q01DX009 (ip), vehicle: saline) was 104 % of control; the T/C under setting [2] is 100 % of control; the T/C (dose: 200.0 mg/kg/injection, schedule: Q01DX009 (ip), vehicle: saline) was 95 % of control; the T/C under setting [5] is 95 % of control; the T/C (dose: 400.0 mg/kg/injection, schedule: Q01DX009 (ip), vehicle: saline) is 101 % of control; the T/C under setting [8] was 97 % of control.
